Like-named read-outs stand apart in the source and are kept apart here.
Assays:
Breast Cancer (LCC6) = assay: Anticancer activity of xenorxide derivatives (Example 8), LCC6; format: cell-based; details: Homo sapiens, LCC-6; LCC6 breast cancer cells
Description: (§1) Anticancer Activity of Xenorxide Derivatives Against Human Lung Cancer (H460) and Breast Cancer (LCC6)

Human Lung Cancer (H460) = assay: Anticancer activity of xenorxide derivatives (Example 8), H460; format: cell-based; details: NCI-H460; H460 human lung cancer cells
Description: as §1

Hela = assay: NCI sulforhodamine B (SRB) anticancer assay, Hela; format: cell-based
Description: (§2) The method normally used by the American National Cancer Institute (NCI) for the effectiveness of a compound is based on the LC50. The LC50 is the compound concentration at which half of the cancer cell population is killed. The assay is commonly used by those skilled in the art and are accepted as indicative of anticancer activity in mammals. The test animal cancer cells are available from ATCC, NCI and other organizations. The anticancer activities of compounds of the present invention have been determined in cell cultures of various human cancer cells (see table below) using the standard NCI method with slight modifications. The specifications of the procedure was described by Skehan et al. (1990). Briefly, cancer cells were grown in RPMI-1640 medium with glutamine and 10% fetal calf serum, and were harvested from exponential-phase maintenance cultures. The harvested cells were counted and dispensed into replicate 96-well culture plates in 180 μl volumes for each well with a cell density of up to 2,500 cells/well. The cells were allowed to settle for about 4 hours at 37° C. Then 20 μl of medium containing the test compound was added into each well, resulting in a suitable final test compound concentration. The test plates were then incubated at 37° C. The test was terminated after incubation by adding to each well 50 1 of cold 50% trichloroacetic acid. The cells were fixed for an hour at 4° C. and then washed five times with tap water. The washed plates were air-dried and stained for 30 minutes with 0.4% (wt/vol) sulforhodamine B (SRB) which was dissolved in 1% acetic acid. At the end of the staining period, the SRB was removed and plates were quickly rinsed five times with 1% acetic acid. After being rinsed, the plates were air-dried and 100 μl of 10 mM tris base (pH 10.5) were added to each well to dissolve the dye bound to the cells. The plates were placed on a gyratory shaker and shaken (100 rpm) for 10 minutes. Finally, the plates were read in a microtiter plate reader at 570 nm.

HT29 = assay: NCI sulforhodamine B (SRB) anticancer assay, HT29; format: cell-based
Description: as §2

MCF-7 = assay: NCI sulforhodamine B (SRB) anticancer assay, MCF-7; format: cell-based
Description: as §2

DU-145 (Prostate cancer) = assay: NCI sulforhodamine B (SRB) anticancer assay, DU-145; format: cell-based; details: DU-145 (Prostate cancer) cells, read-out: LC50 (the source's name)
Description: as §2

Sk-Mel-28 = assay: NCI sulforhodamine B (SRB) anticancer assay, Sk-Mel-28; format: cell-based; details: Sk-Mel-28 cells, read-out: LC50 (the source's name)
Description: as §2

NCI-H460 = assay: NCI sulforhodamine B (SRB) anticancer assay, NCI-H460; format: cell-based; details: NCI-H460 cells, read-out: LC50 (the source's name)
Description: as §2

UO-31 (Renal cancer) = assay: NCI sulforhodamine B (SRB) anticancer assay, UO-31; format: cell-based; details: UO-31 (Renal cancer) cells, read-out: LC50 (the source's name)
Description: as §2

SF-295 (CNS cancer) = assay: NCI sulforhodamine B (SRB) anticancer assay, SF-295; format: cell-based; details: SF-295 (CNS cancer) cells, read-out: LC50 (the source's name)
Description: as §2

P388 = assay: NCI sulforhodamine B (SRB) anticancer assay, P388; format: cell-based; details: P388 cells; read-out: LC50 (the source's name)
Description: as §2, with “The test was terminated after incubation by adding to each well 50 1 of cold 50% trichloroacetic acid. The cells were fixed for an hour at 4° C. and then washed five times with tap water. The washed plates were air-dried and stained for 30 minutes with 0.4% (wt/vol) sulforhodamine B (SRB) which was dissolved in 1% acetic acid. At the end of the staining period, the SRB was removed and plates were quickly rinsed five times with 1% acetic acid. After being rinsed, the plates were air-dried and 100 μl of 10 mM tris base (pH 10.5) were added to each well to dissolve the dye bound to the cells. The plates were placed on a gyratory shaker and shaken (100 rpm) for 10 minutes.” left out

LNCap = assay: NCI sulforhodamine B (SRB) anticancer assay, LNCap; format: cell-based, human; details: LNCap cells; read-out: LC50 (the source's name)
Description: as §2, with “The test was terminated after incubation by adding to each well 50 1 of cold 50% trichloroacetic acid. The cells were fixed for an hour at 4° C. and then washed five times with tap water. The washed plates were air-dried and stained for 30 minutes with 0.4% (wt/vol) sulforhodamine B (SRB) which was dissolved in 1% acetic acid. At the end of the staining period, the SRB was removed and plates were quickly rinsed five times with 1% acetic acid. After being rinsed, the plates were air-dried and 100 μl of 10 mM tris base (pH 10.5) were added to each well to dissolve the dye bound to the cells. The plates were placed on a gyratory shaker and shaken (100 rpm) for 10 minutes.” left out

[1] = Hela cells, read-out: LC50 (the source's name)
[2] = HT29 cells, concentration at which half of the cancer cell population is killed, read-out: LC50 (the source's name)
[3] = MCF-7 cells, read-out: LC50 (the source's name)

COc1ccc(N2C(=O)C(NC(=O)C(F)(F)F)=C3C2=CSS3(=O)=O)cc1 [BLI-041-1]
IC50 (Breast Cancer (LCC6)): 6380 nM
IC50 (Human Lung Cancer (H460)): 2130 nM

COc1ccc(N2C(=O)C(NC(C)=O)=C3C2=CSS3(=O)=O)cc1 [BLI-042-1]
IC50 (Breast Cancer (LCC6)): 1630 nM
IC50 (Human Lung Cancer (H460)): 230 nM

O=C(NC1=C2C(=CSS2(=O)=O)N(Cc2ccccc2)C1=O)c1ccccc1 [CSL-29]
IC50 (Breast Cancer (LCC6)): 1970 nM
IC50 (Human Lung Cancer (H460)): 1980 nM

CC(=O)NC1=C2C(=CSS2(=O)=O)N(c2ccccc2)C1=O [CSL-30]
IC50 (Breast Cancer (LCC6)): 670 nM
IC50 (Human Lung Cancer (H460)): 560 nM

CCCCCC(=O)Nc1c2[s+]([O-])scc-2n(C)c1=O (stereo not drawn) [XM1]
CC50 (Hela; [1]): 800 nM
CC50 (HT29; [2]): 470 nM
CC50 (MCF-7; [3]): 470 nM

CC(C)CCCC(=O)Nc1c2[s+]([O-])scc-2n(C)c1=O (stereo not drawn) [XM2]
CC50 (Hela; [1]): 210 nM
CC50 (HT29; [2]): 110 nM
CC50 (MCF-7; [3]): 550 nM

CC(=O)Nc1c2sscc-2n(C)c1=O [XN0, 6-(Acetamido)-4-methyl-4,5dihydro-1.2-dithiolo[4,3-b]pyrrol-5-one]
CC50 (Hela; Homo sapiens, HeLa, read-out: LC50): 310 nM
CC50 (HT29; Homo sapiens, HT-29, read-out: LC50): 130 nM
CC50 (MCF-7; Homo sapiens, MCF7, read-out: LC50): 350 nM

CCCCCC(=O)Nc1c2sscc-2n(C)c1=O [XN1, 6-(Hexanamido)-4-methyl-4,5-dihydro-1.2-dithiolo[4,3-b]pyrrol-5-one]
CC50 (Hela; [1]): 460 nM
CC50 (HT29; [2]): 110 nM
CC50 (MCF-7; [3]): 560 nM

CC(C)CCCC(=O)Nc1c2sscc-2[nH]c1=O [XN3, 6(5′-Methylhexanamido)-4,5-dihydro1,2-dithiolo[4,3-b]pyrrol-5one]
CC50 (DU-145 (Prostate cancer); Homo sapiens): 140 nM
CC50 (Sk-Mel-28; Homo sapiens): 240 nM
CC50 (Hela; Homo sapiens, Hela cells, read-out: LC50 (the source's name)): 320 nM
CC50 (NCI-H460; Homo sapiens): 30 nM
CC50 (HT29; Homo sapiens, HT-29, HT29 cells, concentration at which half of the cancer cell population is killed, read-out: LC50 (the source's name)): 110 nM
CC50 (UO-31 (Renal cancer); Homo sapiens): 180 nM
CC50 (MCF-7; Homo sapiens, MCF7, MCF-7 cells, read-out: LC50 (the source's name)): 390 nM
CC50 (SF-295 (CNS cancer); Homo sapiens): 40 nM

CCCCCC(=O)NC1=C2C(=CSS2(=O)=O)N(C)C1=O [XO1]
CC50 (DU-145 (Prostate cancer)): 1800 nM
CC50 (Sk-Mel-28): 190 nM
CC50 (Hela; [1]): 160 nM
CC50 (P388): 660 nM
CC50 (NCI-H460): 280 nM
CC50 (HT29; [2]): 220 nM
CC50 (UO-31 (Renal cancer)): 1850 nM
CC50 (MCF-7; [3]): 890 nM
CC50 (LNCap): 540 nM
CC50 (SF-295 (CNS cancer)): 1580 nM

CC(C)CCCC(=O)NC1=C2C(=CSS2(=O)=O)N(C)C1=O [XO2]
CC50 (DU-145 (Prostate cancer)): 1600 nM
CC50 (Sk-Mel-28): 730 nM
CC50 (Hela; [1]): 130 nM
CC50 (P388): 280 nM
CC50 (NCI-H460): 220 nM
CC50 (HT29; [2]): 850 nM
CC50 (UO-31 (Renal cancer)): 6000 nM
CC50 (MCF-7; [3]): 950 nM
CC50 (LNCap): 190 nM
CC50 (SF-295 (CNS cancer)): 2120 nM
